Laboratory results taken from patent US10022342B2, “Methods and compositions for treating multiple myeloma” (Ohio State Innovation Foundation, priority 2015, dated 2018).

Assays:
Assay type in all cases: cell-based, human
[1] = tested on: MM cell lines (MM.1S, U266, RPMI-8226, MM.1R); assay: Annexin V-PI apoptosis, single-agent AR-42 in MM cell lines; conditions: 0.1 μM, 24-hr; all MM cell lines tested
Protocol: Growth inhibitory and pro-apoptotic properties of AR-42 as a single agent treatment agent have been reported previously in numerous malignancies, including MM. Because of the potent immunomodulatory effects observed with classical pan-HDACi's, immunology-related gene networks altered upon AR-42 treatment in MM cells were investigated using nCounter technology to analyze the effects of AR-42 on the expression of 511 human genes in MM.1S cells following 24-hr treatment with 0.1 μM AR-42.
(§1) CD44 surface expression was analyzed by staining cells with CD44-FITC antibody (BD Biosciences) for 30 min. in the dark, at room temperature. Apoptosis was measured by Annexin V-FITC and Propidium Iodide (PI) (Clontech) staining for 15 min. in the dark, at room temperature and data immediately acquired on a Beckman Coulter FC500 (Beckman Coulter) machine. Analysis was conducted using the FlowJo Software vX.0.7 (Tree Star Inc.). For the multiparametric analysis, the bone marrow samples were stained with CD38-PE (347687; BD Bioscience), CD138-APC (347193; BD Bioscience), CD45-ECD (A07784; Beckman Coulter), CD44-FITC (BD Bioscience) and AnnexinV-FITC (Clontech) for 30 minutes, washed with PBS and immediately analyzed with Gallios cytometer (Beckman Coulter).

[2] = tested on: CD44; assay: CD44 protein by immunoblot in MM cells; conditions: 24-hr treatment, dose-dependent, vs DMSO control
Protocol: Reduction of CD44 mRNA and protein persisted for 48 hours after treatment (FIGS. 2C-2D and data not shown).
Cells were harvested by centrifugation, washed with PBS and lysed using buffer composed of 50 mM Tris (pH 7.5), 150 mM NaCl, 10% glycerol, 1.0% NP-40, 0.1% SDS, supplemented with protease and phosphatase inhibitors. Protein concentrations were estimated by Bradford assay and equivalent quantities of the lysates were resolved on 4-20% Tris-HCl SDS-PAGE TGX gels (Bio-Rad). Proteins were transferred to nitrocellulose membranes and stained for acetyl-histone H3 (Milipore), acetyl-histone H4 (Milipore), IGF2BP1 (Cell Signaling Technology), IGF2BP3 (IMP-3, Santa Cruz Biotechnology), CD44 (Santa Cruz Biotechnology), CD48 (Abcam), Drosha (Cell Signaling Technology), or glyceraldehyde 3-phosphate dehydrogenase (GAPDH, Cell Signaling Technology), followed by anti-mouse, or anti-rabbit IgG-HRP (GE Healthcare). Signals were developed using Pierce ECL Western Blotting Substrate (Thermo Fisher Scientific).

[3] = tested on: CD44; assay: CD44 cell surface expression by flow cytometry in MM cell lines
Protocol: The down-regulation of CD44 cell surface expression was also observed by flow cytometry in all MM cell lines tested expressing detectable CD44 levels (FIG. 1D, FIGS. 2E-2F and data not shown).
as §1

[4] = tested on: CD44 promoter region; assay: CD44 promoter luciferase reporter assay; conditions: 0.2 μM, 24 hour; MM.1S, U266 and 293T
Protocol: (§2) To address the molecular mechanism(s) responsible for downregulation of CD44 gene, the potential role of one or more cis regulatory regions was considered. […] The CD44 3′UTR element was subcloned downstream from the SV40 promoter-driven luciferase gene and transiently transfected the resulting reporter plasmid into MM.1S cells. Incubation of these cells with 0.2 μM AR-42 for 24 hours decreased luciferase activity detecting the activity of the CD44 3′UTR element by 35% as compared to untreated cells (FIG. 5A).
Human CD44 promoter-luciferase reporter gene (CD44P pGL3) was obtained from Addgene (Plasmid 19122). The 3′UTR of CD44 was PCR amplified using following primers:
Hela and 293T cells were transfected with 500 ng of 3′UTR-pGL3-control plasmid and 50 ng of Renilla luciferase expression construct (pRL-TK; Promega), using Lipofectamine 2000 (Invitrogen). After 24 hrs cells were lysed and tested by Dual Luciferase Assay (Promega), according to the manufacturer's instructions. MM.1S cells were transfected with 1.8 μg of pGL3-based luciferase vector and 200 ng of pRL-TK, harvested 24 hrs later and assayed as above.

[5] = tested on: CD44 3′UTR element; assay: CD44 3'UTR luciferase reporter assay in MM.1S cells; conditions: 0.2 μM, 24 hours, vs untreated cells
Protocol: as §2
(Forward) 5′-gctagc[…]-3′ (SEQ ID NO: 1) and 5′- gctagc[…]-3′ (SEQ ID NO: 2) (engineered Nhel sites are in lower case), and the products were cloned into Xbal site downstream from the luciferase gene in pGL3-control vector (Promega). To generate IGF2BP3 luciferase reporter constructs, the 3′UTR was amplified by PCR using primers: (Forward) 5′-[…]-3′ (SEQ ID NO: 3) and (Reverse) 5′-[…]-3′ (SEQ ID NO: […]), and cloned into Xbal site of pGL3-control vector (Promega). Mutations in the miR-9-5p binding site of the IGF2BP3 3′UTR were introduced by the QuikChange Mutagenesis Kit (Stratagene) and the following primers:
Hela and 293T cells were transfected with 500 ng of 3′UTR-pGL3-control plasmid and 50 ng of Renilla luciferase expression construct (pRL-TK; Promega), using Lipofectamine 2000 (Invitrogen). […]

[6] = tested on: pri-miR-9-1, pri-miR-9-2, pri-miR-9-3; assay: pri-miR-9 primary transcripts by qRT-PCR in MM.1S cells; conditions: vs controls
Protocol: Because human miR-9-5p is encoded by three distinct genomic loci (i.e., primary (pri)-miR-9-1 on chromosome 1 (q22), pri-miR-9-2 on chromosome 5 (q14.3), and pri-miR-9-3 on chromosome 15 (q26.1)), the identity of the locus responsible for miR-9up-regulation in response to AR-42 was investigated.
Quantitative real time-PCR (qRT-PCR) was performed with the TaqMan method (Applied Biosystems), according to the manufacturer's instructions, and analyzed with the 7900HT Sequence Detection System (Applied Biosystems). The appropriate TaqMan probes for mRNA, miRNA, and pri-miRNA quantification were purchased from Applied Biosystems, and all reactions were performed in triplicate. The following probes were used: hsa-miR-9-5p (000583), hsa-mir-9-1 (Hs03303201_pri), hsa-miR-9-2 (Hs03303202_pri), hsa-mir-9-3 (Hs03293595_pri), CD44 (Hs01075861_ml), IGF2BP3 (Hs00559907_g1). Simultaneous quantification of ornithine decarboxylase antizyme 1 (OAZ1), or GAPDH mRNAs were used as a reference for mRNA data normalization, while small endogenous nucleolar RNA U44/U48, or U6 were used for miRNA normalization. The relative expression levels were calculated by the comparative cycle threshold (Ct) method (User Bulletin #2; Applied Biosystems). Expression analyses of pre-miRNA was performed with SYBR green PCR master mix (Applied Biosystems) and normalized for U6 RNA. […]

CC(C)[C@H](C(=O)Nc1ccc(C(=O)NO)cc1)c1ccccc1 [AR-42, (S)-N-hydroxy-4-(3-methyl-2-phenylbutanamido)benzamide]
apoptosis by Annexin V-PI staining [1]: without significant increase of apoptosis
CD44 protein levels [2]: consistently downregulated
CD44 cell surface expression ([3]; all MM cell lines tested expressing detectable CD44): down-regulation
CD44 downregulation compared to other HDACi's ([3]; at comparable IC50 concentrations, vs SAHA, LBH589, JQ12): greater CD44 downregulation
activity of CD44 promoter region (luciferase) [4]: did not lower
decrease of luciferase activity of the CD44 3′UTR element [5]: 35%
primary transcripts of miR-9-5p [6]: dose dependent changes
